Experimental data from patent US9248162B2, “Factor H for treatment of rheumatoid arthritis” (Baxter International Inc., priority 2013, dated 2016).
“And” between values parts separate entries of the source, which are not always exact repeats. Identical values can stand only once. “Also recorded” adds a separate entry of the source.

Key:
Type in all cases: in vivo, Balb C mice
[1] = tested on: collagen antibody-induced arthritis; experiment: Mouse CAIA: clinical score; parameters: key to Clinical Score, Summary (significance): ns: = not significant; *: = P < 0.05; **: = P < 0.01; ***: = P < 0.001
Procedure: (§1) The mice were treated with ArthritoMAb (anti-collagen) antibody cocktail (2 mg, i.v.) on day 1, followed 7 days later with an injection of LPS (50 μg, i.p.). On day 8, hind paw volumes were measured for each animal and distributed to various treatment groups.
Factor H was formulated in 20 mM Citrate, 150 mM NaCl, pH=6. […] Ethanercept was formulated as Enbrel™ in saline. Vehicle was formulated in 20 mM Citrate, 150 mM NaCl, pH=6. […] The dosing volume for Factor H and BX12 was 25 mL/kg (0.500 mL/20 g mouse) and adjusted accordingly for body weight.
(§2) Dosing with the different agents was started on day 8 as described in Table 3.

[2] = tested on: collagen antibody-induced arthritis; experiment: Mouse CAIA: ankle histology scores (H & E); parameters: key: 0: normal; 1: minimal to mild loss of staining density with no obvious chondrocyte loss or collagen disruption; 2: mild loss of staining density with focal mild (superficial) chondrocyte loss and/or collagen disruption; 3: moderate loss of staining density with multifocal moderate (depth to middle zone) chondrocyte loss and/or collagen disruption; 4: marked loss of staining density with multifocal marked (depth to deep zone) chondrocyte loss and/or collagen disruption; 5: severe diffuse loss of staining density with multifocal severe (depth to tide mark) chondrocyte loss and/or collagen disruption; conditions: individual animal, score 0-5, endpoint day 22, listed as Group 4
Procedure: as §1, with “Balb C mice (n=10 per cohort) were used to determine the efficacy of Factor H (FH) during […]. The” for “The”
as §2
(§3) Hind paw volumes were measured on day 8, 11, 12, 13, 15, 19 and 22 (endpoint). The age at start date was 7 to 9 weeks. Body weights were measured bi-weekly to the endpoint (Table 4). At the endpoint, tissue samples were processed for histology and submitted to a pathologist for independent analysis. Sampling 1 was performed at the endpoint. The hind limbs were preserved in 10% formalin. Sampling 2 was performed at the endpoint for group 4 animals. Blood was collected by terminal cardiac puncture. The blood was processed for anti-coagulant. The kidneys were additionally preserved in formalin and followed with 70% EtOH. Samples were scored for inflammation, pannus (granulation tissue), cartilage damage, bone resorption and exostosis (Table 5).

[3] = tested on: collagen antibody-induced arthritis; experiment: Mouse CAIA: ankle histology scores (H & E); parameters: key: 0: normal; 1: minimal; 2: mild; 3: moderate; 4: marked; 5: severe; conditions: individual animal, score 0-5, endpoint day 22, listed as Group 4
Procedure: as §1, with “Balb C mice (n=10 per cohort) were used to determine the efficacy of Factor H (FH) during […]. The” for “The”
as §2, §3

[4] = tested on: collagen antibody-induced arthritis; experiment: Mouse CAIA: ankle histology scores (H & E); parameters: key to Score From H & E: Inflammation: 0: normal; 1: minimal infiltration of inflammatory cells in periarticular tissue; 2: mild infiltration; 3: moderate infiltration with moderate edema; 4: marked infiltration with marked edema; 5: severe infiltration with severe edema; key to Exostosis, Summary (significance) / Composite, Summary (significance) / Pannus, Summary (significance) / Cartilage, Summary (significance) / Inflammation, Summary (significance): ns: = not significant; *: = P < 0.05; **: = P < 0.01; ***: = P < 0.001; Composite Biohistopathology Score, group value / Composite Biohistopathology Score: scale not given here
Procedure: as §1, with “Balb C mice (n=10 per cohort) were used to determine the efficacy of Factor H (FH) during […]. The” for “The”
as §2, §3

[5] = tested on: collagen antibody-induced arthritis; experiment: Mouse CAIA: ankle histology scores (H & E); parameters: key: 0: normal; 1: minimal infiltration of inflammatory cells in periarticular tissue; 2: mild infiltration; 3: moderate infiltration with moderate edema; 4: marked infiltration with marked edema; 5: severe infiltration with severe edema; conditions: individual animal, score 0-5, endpoint day 22, listed as Group 4
Procedure: as §1, with “Balb C mice (n=10 per cohort) were used to determine the efficacy of Factor H (FH) during […]. The” for “The”
as §2, §3

[6] = tested on: collagen antibody-induced arthritis; experiment: Mouse CAIA: ankle histology scores (H & E); parameters: key: 0: normal; 1: minimal infiltration of pannus in cartilage and subchondral bone; 2: mild infiltration; 3: moderate infiltration; 4: marked infiltration; 5: severe infiltration; conditions: individual animal, score 0-5, endpoint day 22, listed as Group 4
Procedure: as §1, with “Balb C mice (n=10 per cohort) were used to determine the efficacy of Factor H (FH) during […]. The” for “The”
as §2, §3

[7] = Vehicle vs agent, Dunn's Multiple Comparison Test
[8] = ankle, group mean ± spread, 10 animals, score 0-5
[9] = histopathology score, graded 1-5, hind limbs at endpoint, group value

Factor H
Clinical Score, Difference in rank sum [1, 7]: 8.3
Clinical Score, Summary (significance) [1, 7]: ns
Max Clin Score, Mean ([1]; group mean, n=10): 33.40
Clinical Score, Day of Study 8, Mean ([1]; group mean, n=10, day 8 (start of dosing)): 3.00
Clinical Score, Day of Study 11, Mean ([1]; group mean, n=10, day 11): 14.60
Clinical Score, Day of Study 12, Mean ([1]; group mean, n=10, day 12): 33.40
Clinical Score, Day of Study 13, Mean ([1]; group mean, n=10, day 13): 23.60
Clinical Score, Day of Study 16, Mean ([1]; group mean, n=10, day 16 (Jul. 1, 2011)): 16.90
Clinical Score, Day of Study 19, Mean ([1]; group mean, n=10, day 19): 18.20
Clinical Score, Day of Study 22, Mean ([1]; group mean, n=10, day 22 (endpoint)): 18.80
Day (of Max Clin Score) ([1]; individual animal, day of study): 12
Max Clin Score ([1]; individual animal, maximum over days 8 to 22, listed as BX12): 37 and 42 (2×) and 20 and 21 and 49 and 30 and 32 and 16 and 45
Clinical Score, Day of Study 8 ([1]; individual animal, score 0-60, day 8 (start of dosing), listed as BX12): 5 (3×) and 0 (6×) and 15
Clinical Score, Day of Study 11 ([1]; individual animal, score 0-60, day 11, listed as BX12): 25 and 10 (2×) and 15 (2×) and 5 and 18 and 21 (2×) and 6
Clinical Score, Day of Study 12 ([1]; individual animal, score 0-60, day 12, listed as BX12): 37 and 42 (2×) and 20 and 21 and 49 and 30 and 32 and 16 and 45
Clinical Score, Day of Study 13 ([1]; individual animal, score 0-60, day 13, listed as BX12): 18 and 37 and 34 and 20 (2×) and 10 and 40 and 26 and 15 and 16
Clinical Score, Day of Study 16 ([1]; individual animal, score 0-60, day 16 (Jul. 1, 2011), listed as BX12): 13 and 21 and 15 (2×) and 10 and 1 and 43 and 25 and 6 and 20
Clinical Score, Day of Study 19 ([1]; individual animal, score 0-60, day 19, listed as BX12): 25 and 31 and 20 (2×) and 10 (3×) and 0 and 46 and 7
Clinical Score, Day of Study 22 ([1]; individual animal, score 0-60, day 22 (endpoint), listed as BX12): 24 and 31 and 21 and 10 and 1 and 39 and 15 and 26 and 5 and 16
Day (of Max Clin Score), Mean ([1]; listed as 'Mean', n=10, day of study): 12.00
clinical response / clinical score ([1]; result in words (Tables 6 and 7, FIG. 10), listed as FH): improved clinical response compared to vehicle control animals; also recorded: improves more over Etanercept at later time points (days 15 to 22); also recorded: lower clinical score compared to both vehicle and Etanercept
Mean Maximum Clinical Score ([1]; scored from 0 to 60 (15/limb), sum of 4 limbs, vehicle 45.4): 33.4^ns
Score From H & E: Cartilage Damage [2]: 1 (4×) and 2
Score From H & E: Bone Resorption [3]: 1 and 2
Score From H & E: Periosteal/Exostotic Changes [3]: 3
Cartilage, Difference in rank sum [4, 7]: −0.75
Cartilage, Summary (significance) [4, 7]: ns
Composite, Difference in rank sum [4, 7]: 3.25
Composite, Summary (significance) [4, 7]: ns
Exostosis, Difference in rank sum [4, 7]: 11.5
Exostosis, Summary (significance) [4, 7]: * (= P < 0.05)
Inflammation, Difference in rank sum [4, 7]: 6.45
Inflammation, Summary (significance) [4, 7]: ns
Pannus, Difference in rank sum [4, 7]: 1.9
Pannus, Summary (significance) [4, 7]: ns
Composite Biohistopathology Score, group value ([4]; ankle, group mean ± spread, 10 animals): 3.1 ± 1.2
Score From H & E: Bone Resorption, group value [4, 8]: 0.3 ± 0.2
Score From H & E: Cartilage Damage, group value [4, 8]: 0.6 ± 0.2
Score From H & E: Inflammation, group value [4, 8]: 1.0 ± 0.3
Score From H & E: Pannus, group value [4, 8]: 0.9 ± 0.3
Score From H & E: Periosteal/Exostotic Changes, group value [4, 8]: 0.3 ± 0.3
Composite Biohistopathology Score ([4]; ankle, individual animal, endpoint day 22, listed as Group 4): 1 (3×) and 4 and 5 and 2 and 0 (2×) and 13 and 3
Score From H & E: Inflammation ([4]; ankle, individual animal, score 0-5, endpoint day 22, listed as Group 4): 0 (4×) and 1 (3×) and 2 (2×) and 3
Composite Score ([4]; histopathology composite, hind limbs at endpoint, group value): 3.1 ± 1.2^ns
Bone Resorption [4, 9]: 0.3 ± 0.2^ns
Cartilage Damage [4, 9]: 0.6 ± 0.2^ns
Exostosis [4, 9]: 0.3 ± 0.3
Inflammation [4, 9]: 1.0 ± 0.3^ns
Pannus [4, 9]: 0.9 ± 0.3^ns
histopathology ([4]; result in words (Table 8, FIG. 11), listed as FH): inhibits exostosis; also recorded: trend toward improved inflammation and bone resorption
Score From H & E: Bone Resorption [5]: 0
Score From H & E: Cartilage Damage [5]: 0
Score From H & E: Pannus [5]: 2 and 0 (4×)
Score From H & E: Periosteal/Exostotic Changes [5]: 0
Score From H & E: Pannus [6]: 1 (4×) and 3
